Values quoted from earlier work in patent CN104546722A, “米铂脂质体和制法” (priority 2015, dated 2015).
Where two headings read alike, the source gives them in different places.

Legend:
[1] = system: hepatocellular carcinoma patients (肝细胞癌患者)
[2] = system: liver cancer patients (肝癌患者)
[3] = system: hepatocellular carcinoma (肝细胞癌)
[4] = system: hepatocellular carcinoma patients (肝细胞癌患者); conditions: human, in vivo
[5] = after administration
[6] = not given; remark: listed apart in the source
[7] = system: rodent liver cancer cell line AH109A (鼠肝癌细胞株AH109A)
[8] = system: human liver cancer cell line Li-7 (人肝癌细胞株Li-7)
[9] = system: hepatocellular carcinoma patients (肝细胞癌患者); conditions: human, in vivo; remark: listed apart in the source

CCCCCCCCCCCCCC(=O)[O-].CCCCCCCCCCCCCC(=O)[O-].N[C@@H]1CCCC[C@H]1N.[Pt+2] [米铂, 顺-[(1R,2R)-1,2-环己二胺-N,N’]双十四酰氧基合铂]
TEV (disappearance of mass or 100% tumour necrosis rate) ([1]; 22/83 patients): 26.5%
hepatic vascular injury ([1]; from administration): 未发生肝血管损伤
2-year survival rate ([1]; human, in vivo): 75.9%
3-year survival rate ([1]; human, in vivo): 58.4%
CR rate ([2]; 9/16 patients): 56%
tolerability ([2]; 16 patients): 耐受性好

CCCCCCCCCCCCCC(=O)[O-].CCCCCCCCCCCCCC(=O)[O-].N[C@@H]1CCCC[C@H]1N.O.[Pt+2] [米铂一水合物, (SP-4-2)-[(1R,2R)-1,2环己二氨-N,N′]二(十四酸-O)合铂一水合物]
time to disappearance of adverse reactions ([3]; almost all, after administration): 4~6 weeks
CR rate (therapeutic effect, TE) ([3]; hepatocellular carcinoma): 60%
1-year survival rate [4]: 90.1%
2-year survival rate [4]: 75.9%
3-year survival rate [4]: 58.4%
efficacy compared with 净司他丁斯酯 [4]: 疗效相当
safety compared with 净司他丁斯酯 [4]: 更安全
total platinum concentration in blood [5]: 极低,可长时间维持
Cmax, reduced to (about 1 year after administration): ~17%
total platinum concentration in blood (level) (after administration, (ng)): 极低,属微量且维持时间长
total platinum mass concentration in blood (mean) ([6]; after first administration): 9.6 ng/mL
total platinum mass concentration in blood (mean) ([6]; after second administration): 12.9 ng/mL
tumour cell proliferation rate ([7]; 20 mg/mL in suspension): 明显降低
antitumour effect ([7]; single dose of suspension): 剂量相关地抗肿瘤作用
inhibition of cancer cell proliferation ([7]; suspension): 以剂量相关方式抑制癌细胞增殖
tumour cell proliferation rate ([8]; 20 mg/mL in suspension): 明显降低
antitumour effect ([8]; single dose of suspension): 剂量相关地抗肿瘤作用
inhibition of cancer cell proliferation ([8]; suspension): 以剂量相关方式抑制癌细胞增殖
1-year survival rate [9]: 63.6%
2-year survival rate [9]: 38.2%
